In patent US20230085307A1, “PYRIDAZINONE COMPOUND AND HERBICIDE” (NISSAN CHEMICAL CORPORATION, priority 2019, published 2023):

Tests used:
oval-leafed pondweed = assay: Test Example 2: herbicidal activity, application during weed generation under submerged conditions (Table 17, symbol C); format: in vivo, oval-leafed pondweed (Monochoria vaginalis)
Summary of the method: (§1)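 Mixed weed seedlings in alluvial soil under a 4 cm water layer, greenhouse-grown at 25–30° C. Compound given as a diluted emulsion into the floodwater at the 1–2 leaf stage; response graded after three weeks.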

wild oat = assay: Test Example 5: herbicidal effect by foliage application, plastic box (Table 20, symbol I); format: in vivo, wild oat (Avena fatua); settings: foliage application, 320 g/ha
Summary of the method: (§2)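 Plants sown in sterilized diluvial soil and grown 14 days in a greenhouse at 25° C to 30° C, then sprayed on the foliage with the compound's emulsion diluted in water to a predetermined herbicide amount. Injury to weeds and crops scored three weeks after application on a visual rating scale.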

barnyard grass [1] = assay: Test Example 3: herbicidal effect by foliage application, Wagner pot (Table 18, symbol H); format: in vivo, barnyard grass (Echinochloa crus-galli)
Summary of the method: (§3)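 Plants were sown in alluvial soil held under 0.1–0.5 cm standing water and grown 14 days in a greenhouse at 25–30 °C. An emulsifiable formulation, water-diluted to the set dose, was then sprayed onto the foliage, and effects were scored three weeks later using previously defined criteria.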

lambsquarters = assay: Test Example 5: herbicidal effect by foliage application, plastic box (Table 20, symbol O); format: in vivo, lambsquarters (Chenopodium album); settings: foliage application, 320 g/ha
Summary of the method: as §2

redroot pigweed [2] = assay: Test Example 5: herbicidal effect by foliage application, plastic box (Table 20, symbol N); format: in vivo, redroot pigweed (Amaranthus retroflexus); settings: foliage application, 320 g/ha
Summary of the method: as §2

windgrass [3] = assay: Test Example 4: herbicidal effect by soil treatment (Table 19, symbol L); format: in vivo, windgrass (Apera spica-venti); settings: amount of applied herbicide 320 g/ha
Summary of the method: (§4)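 Seeds were sown in sterilized diluvial soil and covered with about 1.5 cm of soil. An emulsion formulation diluted with water to a predetermined herbicide amount was sprayed evenly onto the soil surface. Plants grew in a greenhouse at 25° C. to 30° C., and the effect was scored three weeks after application using criteria from an earlier test.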

velvetleaf [4] = assay: Test Example 4: herbicidal effect by soil treatment (Table 19, symbol M); format: in vivo, velvetleaf (Abutilon theophrasti); settings: amount of applied herbicide 320 g/ha
Summary of the method: as §4

late watergrass [5] = assay: Test Example 1: herbicidal activity, application before weed generation under submerged conditions (Table 16, symbol A); format: in vivo, late watergrass (Echinochloa oryzicola); settings: amount of applied herbicide 320 g/ha
Summary of the method: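 Submerged Wagner pots (alluvial soil, 4 cm water) sown with weed seeds and planted with 2.5-leaf rice seedlings; emulsifiable concentrate diluted in water applied to water surface on sowing day. Held in greenhouse at 25-30 °C; injury scored 0-5 by herbicidal rate after three weeks.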

green foxtail [6] = assay: Test Example 4: herbicidal effect by soil treatment (Table 19, symbol G); format: in vivo, green foxtail (Setaria viridis); settings: amount of applied herbicide 320 g/ha
Summary of the method: as §4

late watergrass [7] = assay: Test Example 2: herbicidal activity, application during weed generation under submerged conditions (Table 17, symbol A); format: in vivo, late watergrass (Echinochloa oryzicola)
Summary of the method: as §1

barnyard grass [8] = assay: Test Example 5: herbicidal effect by foliage application, plastic box (Table 20, symbol H); format: in vivo, barnyard grass (Echinochloa crus-galli); settings: foliage application, 320 g/ha
Summary of the method: as §2

Chinese sprangletop = assay: Test Example 3: herbicidal effect by foliage application, Wagner pot (Table 18, symbol D); format: in vivo, chinese sprangletop (Leptochloa chinensis)
Summary of the method: as §3

redroot pigweed [9] = assay: Test Example 4: herbicidal effect by soil treatment (Table 19, symbol N); format: in vivo, redroot pigweed (Amaranthus retroflexus); settings: amount of applied herbicide 320 g/ha
Summary of the method: as §4

windgrass [10] = assay: Test Example 5: herbicidal effect by foliage application, plastic box (Table 20, symbol L); format: in vivo, windgrass (Apera spica-venti); settings: foliage application, 320 g/ha
Summary of the method: as §2

velvetleaf [11] = assay: Test Example 5: herbicidal effect by foliage application, plastic box (Table 20, symbol M); format: in vivo, velvetleaf (Abutilon theophrasti); settings: foliage application, 320 g/ha
Summary of the method: as §2

green foxtail [12] = assay: Test Example 5: herbicidal effect by foliage application, plastic box (Table 20, symbol G); format: in vivo, green foxtail (Setaria viridis); settings: foliage application, 320 g/ha
Summary of the method: as §2

[13] = application during weed generation under submerged conditions, amount of applied herbicide 320 g/ha
[14] = evaluated 3 weeks after application
[15] = amount of applied herbicide 320 g/ha
[16] = AAH 320 g/ha, application during weed generation, submerged conditions

Q: What does the source list for `Cc1ccc2oc(-c3ccc(SC(C)C)cc3)c(-c3c(O)c(C)nn(C)c3=O)c2c1` [9-059]?
A: herbicidal effect grade, C: oval-leafed pondweed (oval-leafed pondweed; [13]): 4 (Herbicidal rate of 70% or more and less than 90%); I (wild oat) herbicidal effect grade (wild oat; [14]): 3 (Herbicidal rate of 40% or more and less than 70%); Herbicidal effect on H (barnyard grass), foliage application (barnyard grass [1]; [15]): 5 (Herbicidal rate of 90% or more (almost completely withered)); O (lambsquarters) herbicidal effect grade (lambsquarters; [14]): 5 (Herbicidal rate of 90% or more (almost completely withered)); N (redroot pigweed) herbicidal effect grade (redroot pigweed [2]; [14]): 5 (Herbicidal rate of 90% or more (almost completely withered)); L: windgrass, herbicidal effect grade (windgrass [3]): 0 (Herbicidal rate of 5% or less (almost no effect)); M: velvetleaf, herbicidal effect grade (velvetleaf [4]): 3 (Herbicidal rate of 40% or more and less than 70%); Herbicidal effect, A: late watergrass (late watergrass [5]): 5 (Herbicidal rate of 90% or more (almost completely withered)); G: green foxtail, herbicidal effect grade (green foxtail [6]): 3 (Herbicidal rate of 40% or more and less than 70%); herbicidal effect grade, A: late watergrass (late watergrass [7]; [13]): 4 (Herbicidal rate of 70% or more and less than 90%); H (barnyard grass) herbicidal effect grade (barnyard grass [8]; [14]): 3 (Herbicidal rate of 40% or more and less than 70%); Herbicidal effect on D (Chinese sprangletop), foliage application (Chinese sprangletop; [15]): 3 (Herbicidal rate of 40% or more and less than 70%); N: redroot pigweed, herbicidal effect grade (redroot pigweed [9]): 5 (Herbicidal rate of 90% or more (almost completely withered)); L (windgrass) herbicidal effect grade (windgrass [10]; [14]): 1 (Herbicidal rate of 5% or more and less than 20%); M (velvetleaf) herbicidal effect grade (velvetleaf [11]; [14]): 5 (Herbicidal rate of 90% or more (almost completely withered)); G (green foxtail) herbicidal effect grade (green foxtail [12]; [14]): 5 (Herbicidal rate of 90% or more (almost completely withered))

Q: What does the source list for `COc1ccc2c(-c3c(O)c(Cl)nn(C)c3=O)c(-c3ccccc3OC)sc2c1` [Compound No. 3-088, 6-chloro-5-hydroxy-4-(6-methoxy-2-(2-methoxyphenyl)benzo[b]thiophen-3-yl)-2-methylpyridazin-3(2H)-one]?
A: herbicidal effect rating, C: oval-leafed pondweed (oval-leafed pondweed; [16]): 3 (Herbicidal rate of 40% or more and less than 70%); I: wild oat, herbicidal effect grade (wild oat; three weeks after application): 3 (Herbicidal rate of 40% or more and less than 70%); herbicidal effect on barnyard grass (H) (barnyard grass [1]; 320 g/ha): 5 (Herbicidal rate of 90% or more (almost completely withered)); O: lambsquarters, herbicidal effect grade (lambsquarters; three weeks after application): 4 (Herbicidal rate of 70% or more and less than 90%); N: redroot pigweed, herbicidal effect grade (redroot pigweed [2]; three weeks after application): 4 (Herbicidal rate of 70% or more and less than 90%); L: windgrass, herbicidal effect grade (windgrass [3]): 0 (Herbicidal rate of 5% or less (almost no effect)); M: velvetleaf, herbicidal effect grade (velvetleaf [4]): 5 (Herbicidal rate of 90% or more (almost completely withered)); Herbicidal effect, A: late watergrass (late watergrass [5]): 5 (Herbicidal rate of 90% or more (almost completely withered)); G: green foxtail, herbicidal effect grade (green foxtail [6]): 5 (Herbicidal rate of 90% or more (almost completely withered)); herbicidal effect rating, A: late watergrass (late watergrass [7]; [16]): 3 (Herbicidal rate of 40% or more and less than 70%); H: barnyard grass, herbicidal effect grade (barnyard grass [8]; three weeks after application): 4 (Herbicidal rate of 70% or more and less than 90%); herbicidal effect on Chinese sprangletop (D) (Chinese sprangletop; 320 g/ha): 4 (Herbicidal rate of 70% or more and less than 90%); N: redroot pigweed, herbicidal effect grade (redroot pigweed [9]): 5 (Herbicidal rate of 90% or more (almost completely withered)); L: windgrass, herbicidal effect grade (windgrass [10]; three weeks after application): 3 (Herbicidal rate of 40% or more and less than 70%); M: velvetleaf, herbicidal effect grade (velvetleaf [11]; three weeks after application): 4 (Herbicidal rate of 70% or more and less than 90%); G: green foxtail, herbicidal effect grade (green foxtail [12]; three weeks after application): 5 (Herbicidal rate of 90% or more (almost completely withered))
